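96-well plates; 48 h exposure; 5 concentrations. Endpoints by linear interpolation between flanking doses. Not reached: highest tested concentration assigned. At the GI50, growth is halved. TGI: concentration producing complete growth inhibition.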
Key:
Assay in all cases: DTP human tumour cell line panel, 48 h
HOP-18 NSCLC = system: HOP-18 NSCLC
M14 melanoma = system: M14 melanoma
SNB-78 CNS = system: SNB-78 CNS
DMS 273 small cell lung = system: DMS 273 small cell lung
XF 498 CNS = system: XF 498 CNS
NCI-H522 lung = system: NCI-H522 lung
HOP-92 NSCLC = system: HOP-92 NSCLC
NCI/ADR-RES ovarian = system: NCI/ADR-RES ovarian
MDA-MB-435 = system: MDA-MB-435

Row | SMILES | TGI (HOP-18 NSCLC) [µM] | TGI (M14 melanoma) [µM] | TGI (SNB-78 CNS) [µM] | TGI (DMS 273 small cell lung) [µM] | TGI (XF 498 CNS) [µM] | TGI (NCI-H522 lung) [µM] | TGI (HOP-92 NSCLC) [µM] | TGI (NCI/ADR-RES ovarian) [µM] | TGI (MDA-MB-435) [µM] | GI50 (M14 melanoma) [µM] | GI50 (SNB-78 CNS) [µM] | GI50 (DMS 273 small cell lung) [µM] | GI50 (NCI-H522 lung) [µM] | GI50 (HOP-92 NSCLC) [µM]
1 | Cn1cnnc1Sc1c([N+](=O)[O-])nc(-c2ccc([N+](=O)[O-])cc2)n1C | 31.3 | 30.6 | 35.6 | 31.8 | 22.5 | 19.7 | 34.9 | – | – | – | – | – | – | –
2 | CCCCn1c(-c2ccccc2)cs/c1=N\NC(=O)Cn1c(C)nc2ccccc21 | > 100 | > 100 | > 100 | > 100 | > 100 | > 100 | – | – | – | – | – | – | – | –
3 | O=C(O)C12C=CC(C1)c1ccccc12 (stereo not given) | > 100 | > 100 | – | > 100 | – | – | > 100 | – | – | – | – | – | – | –
4 | C/C(=N/NC(N)=S)C(CN1CCOCC1)C(C1=C(O)c2ccccc2OC1)c1ccccc1 (stereo not given) | > 100 | > 100 | > 100 | – | > 100 | > 100 | > 100 | – | – | – | – | – | – | –
5 | BrCc1ccc2ccc3ccc(CBr)nc3c2n1 | 5.48 | 8.79 | 4.43 | 3.34 | – | – | 4.04 | 5.15 | 16.6 | – | – | – | – | –
6 | N.N.N.N.O=S([O-])[O-].[Co+3].[N-]=[N+]=[N-] | – | > 100 | > 100 | > 100 | – | > 100 | > 100 | – | – | > 100 | > 100 | > 100 | 42.3 | > 100
7 | O=C1C(=O)N(c2cc(Cl)ccc2Cl)C(=O)C(=O)C1c1nc2ccccc2s1 | – | > 100 | > 100 | > 100 | > 100 | > 100 | > 100 | – | – | – | – | – | – | –
8 | CCOC(=O)NN1C(=O)C(=P(c2ccccc2)(c2ccccc2)c2ccccc2)C(C(=O)OC)=C1C | > 100 | > 100 | > 100 | > 100 | > 100 | > 100 | > 100 | – | – | – | – | – | – | –
9 | CNC(=O)NCCCCC(NC(C)=O)C(=O)NCc1ccccc1 (stereo not given) | – | > 100 | > 100 | > 100 | > 100 | > 100 | > 100 | – | – | – | – | – | – | –
10 | COC(OC)c1cccnc1C | > 100 | > 100 | > 100 | > 100 | > 100 | > 100 | > 100 | – | – | – | – | – | – | –
11 | O=C(Cc1nc2ccccc2s1)C(=O)Nc1cccc(C(F)(F)F)c1 | > 100 | > 100 | > 100 | > 100 | – | > 100 | > 100 | – | – | – | – | – | – | –
12 | C=C(c1ccccc1)c1cc2c(=O)[nH]ccc2n1C | – | > 100 | > 100 | > 100 | 91 | 54.9 | 61.3 | – | – | – | – | – | – | –
13 | COc1cccc(C=NC23CC4CC(CC(C4)C2)C3)c1 | – | > 100 | > 100 | > 100 | – | > 100 | > 100 | – | – | – | – | – | – | –
14 | C[C@]12CC[C@H](OC(=O)Nc3ccccc3)CC1=CC[C@@H]1C2CC[C@]2(C)/C(=N/OC(=O)Nc3ccccc3)CCC12 (stereo not given in full) | 37.9 | > 100 | > 100 | > 100 | 3.19 | – | 72.1 | – | – | – | – | – | – | –
15 | COc1ccc(OCC(=O)O)c2c1CCC(C)C2=O (stereo not given) | > 100 | > 100 | > 100 | > 100 | > 100 | > 100 | – | – | – | – | – | – | – | –
16 | COc1c2c(c(O)c3c4c(c(C)cc13)C1OC3(C(OC)OC5CC(C)(O)C(OC6CC(C)(O)C(O)C(C)O6)C(C)O5)OC1C(OC)(O4)C31CO1)C(=O)C(O)CC2OC1CC(C)(O)C(OC(C)=O)C(C)O1 (stereo not given) | – | 0.0156 | < 0.0448 | < 0.01 | < 0.01 | < 0.01 | < 0.01 | – | – | – | – | – | – | –
17 | O=C1N=C2N=C(c3ccc(Cl)cc3)N(c3ccc(Cl)cc3)N2Sc2ccccc21 | > 100 | > 100 | > 100 | > 100 | 99.4 | > 100 | > 100 | – | – | – | – | – | – | –
18 | O=C(NCCCN1CCN(CCCNC(=O)Nc2cc(Cl)ccc2Cl)CC1)Nc1cc(Cl)ccc1Cl | > 100 | > 100 | > 100 | > 100 | > 100 | > 100 | > 100 | – | – | – | – | – | – | –
19 | C/C(=C\c1ccccc1)C(=O)c1c(C)cc(C)cc1C | > 100 | > 100 | – | – | > 100 | > 100 | > 100 | – | – | – | – | – | – | –
